Consider 18 molecules from patent US20110038885A1, “CHEMOKINE ANALOGS” (priority 2007, published 2011).

Numbered stars: 1 amine (or outer) side, 2 acyl side, 3 side chain; on linkers, the order of the positions; unused ones are H or OH. Bridge positions count the residues as written; N and C are the ends. Square brackets hold non-standard residues; d marks the D form. Peptide text beside a SMILES is read from it. * marks the point of attachment. Benzoyl(4-Ph) = O=C(c1ccc(-c2ccccc2)cc1)*; pGlu = O=C1CC[C@@H](C(=O)O)N1; Suc = O=C(CCC(=O)[*:2])[*:1]; Isobutyryl = CC(C)C(=O)*; Orn = NCCC[C@H](N)C(=O)O; Dab = NCC[C@H](N)C(=O)O; Dap = NC[C@H](N)C(=O)O; Ahp = NCCCCCCC(=O)O; Bz = O=C(c1ccccc1)*; βAla = NCCC(=O)O

The assay has as its system MCP-1. The experiment in a line: In vitro chemotaxis (trans-well migration) v MCP-1. In kind it is cell-based, human. The gist of the method:
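Trans-well migration toward IL-8 or MCP-1 placed below, with agent added to THP-1 cells (10^4-10^6) in the top well and incubation at 37° C (e.g. 4 hours). MTT absorbance at 595 nm, interpolated on a cell standard curve, gives migrated cell numbers; TGFβ-type negative control and cytotoxicity check included.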
For `NCCCC[C@@H]1NC(=O)CCNC(=O)C[C@@H](C(N)=O)NC(=O)[C@H](CCC(N)=O)NC(=O)[C@H](Cc2c[nH]c3ccccc23)NC1=O` [Example 59, c((βA1a-Lys-Trp-Gln-Asp)-NH2] ([βAla]KWQD-NH2; lactam N-5), the EC50 (in general, the concentration at which the effect is half-maximal) stood at 0.025 µM.
The figure for `CC[C@H](C)[C@@H]1NC(=O)[C@H](Cc2c[nH]c3ccccc23)NC(=O)[C@H](CCCCN)NC(=O)CCCCCCNC(=O)C[C@@H](C(N)=O)NC(=O)[C@H](CCC(N)=O)NC1=O` [Example 93, c(Aha-Lys-Trp-Ile-Gln-Asp)-NH2] ([Ahp]KWIQD-NH2; lactam N-6) is 0.008 µM; for `CC[C@H](C)[C@@H]1NC(=O)[C@H](Cc2c[nH]c3ccccc23)NC(=O)[C@H](CCCCN)NC(=O)[C@@H](NC(=O)C(C)C)CCCNC(=O)CC[C@@H](C(N)=O)NC(=O)[C@H](CCC(N)=O)NC1=O` [Example 108, Isobutyryl-c(Orn-Lys-Trp-Ile-Gln-Glu)-NH2] (Isobutyryl-[Orn]KWIQE-NH2; lactam 1-6) it is 0.008 µM.
In the case of `CC[C@H](C)[C@@H]1NC(=O)[C@H](Cc2c[nH]c3ccccc23)NC(=O)[C@H](CCCCN)NC(=O)[C@@H](NC(C)=O)CNC(=O)CC[C@@H](C(N)=O)NC(=O)[C@H](CCC(N)=O)NC1=O` [Example 121, Ac-c(Dap-Lys-Trp-Ile-Gln-Glu)-NH2] (Ac-[Dap]KWIQE-NH2; lactam 1-6), the midpoint of the response, the EC50, lay at 0.01 µM.
Next, `CC[C@H](C)[C@@H]1NC(=O)[C@H](Cc2c[nH]c3ccccc23)NC(=O)[C@H](CCCCN)NC(=O)[C@@H](NC(=O)C(C)C)CNC(=O)C[C@@H](C(N)=O)NC(=O)[C@H](CCC(N)=O)NC1=O` [Example 104, Isobutyryl-c(Dap-Lys-Trp-Ile-Gln-Asp)-NH2] (Isobutyryl-[Dap]KWIQD-NH2; lactam 1-6): 0.05 µM.
Regarding `CC[C@@H](C)[C@H]1NC(=O)[C@@H](CCC(N)=O)NC(=O)[C@H](NC(=O)c2ccccc2)CSSC[C@H](C(N)=O)NC(=O)[C@@H](CCCCN)NC(=O)[C@@H](Cc2c[nH]c3ccccc23)NC1=O` [Example 192, Benzoyl-c(D-Cys-D-Gln-D-Ile-D-Trp-D-Lys-D-Cys)-NH2] (Bz-[dC][dQ][dI][dW][dK][dC]-NH2; disulfide 1-6), the response was half-maximal at 0.007 µM (EC50).
The figure for `CC[C@H](C)[C@@H]1NC(=O)[C@H](Cc2c[nH]c3ccccc23)NC(=O)[C@@H](CCCCN)NC(=O)[C@@H](NC(C)=O)CSSC[C@@H](C(N)=O)NC(=O)[C@H](CCC(N)=O)NC1=O` [Example 78, Ac-c(Cys-D-Lys-Trp-Ile-Gln-Cys)-NH2] (Ac-C[dK]WIQC-NH2; disulfide 1-6) is 0.03 µM; for `CC[C@H](C)[C@@H]1NC(=O)[C@H](Cc2c[nH]c3ccccc23)NC(=O)[C@H](CCCCN)NC(=O)CNC(=O)C[C@@H](C(N)=O)NC(=O)[C@H](CCC(N)=O)NC1=O` [Example 87, c(Gly-Lys-Trp-Ile-Gln-Asp)-NH2] (GKWIQD-NH2; lactam N-6) it is 0.015 µM.
Molecule `CC[C@H](C)[C@@H]1NC(=O)[C@H](Cc2c[nH]c3ccccc23)NC(=O)[C@H](CCCCN)NC(=O)CCC(=O)NCC[C@@H](C(N)=O)NC(=O)[C@H](CCC(N)=O)NC1=O` [Example 126, c(Succinyl-Lys-Trp-Ile-Gln-Dab)-NH2] (KWIQ[Dab]-NH2; linker N-5 via Suc) showed an EC50 of 0.006 µM.
In the case of `CC[C@H](C)[C@@H]1NC(=O)[C@H](Cc2c[nH]c3ccccc23)NC(=O)[C@H](CCCCN)NC(=O)CSC[C@@H](C(N)=O)NC(=O)[C@H](CCC(N)=O)NC1=O` [Example 65, c(Ac-Lys-Trp-Ile-Gln-Cys)-NH2] ({CH2CO}-KWIQC-NH2; thioether N-5), the EC50 turned out to be 0.03 µM.
The figure for `CC[C@H](C)[C@@H]1NC(=O)[C@H](Cc2c[nH]c3ccccc23)NC(=O)[C@H](CCCCN)NC(=O)CCC(=O)NCCCC[C@@H](C(N)=O)NC(=O)[C@H](CCC(N)=O)NC1=O` [Example 63, c(Succinyl-Lys-Trp-Ile-Gln-Lys)-NH2] (KWIQK-NH2; linker N-5 via Suc) is 0.066 µM; for `CC[C@H](C)[C@@H]1NC(=O)[C@H](Cc2c[nH]c3ccccc23)NC(=O)[C@H](CCCCN)NC(=O)[C@@H](NC(=O)C(C)C)CCCCNC(=O)CC[C@@H](C(N)=O)NC(=O)[C@H](CCC(N)=O)NC1=O` [Example 109, Isobutyryl-c(Lys-Lys-Trp-Ile-Gln-Glu)-NH2] (Isobutyryl-KKWIQE-NH2; lactam 1-6) it is 0.008 µM.
`CC[C@H](C)[C@@H]1NC(=O)[C@H](Cc2c[nH]c3ccccc23)NC(=O)[C@H](CCCCN)NC(=O)CCC(=O)NCCC[C@@H](C(N)=O)NC(=O)[C@H](CCC(N)=O)NC1=O` [Example 62, c(Succinyl-Lys-Trp-Ile-Gln-Orn)-NH2] (KWIQ[Orn]-NH2; linker N-5 via Suc) had an EC50 of 0.066 µM.
`CC[C@H](C)[C@@H]1NC(=O)[C@H](Cc2c[nH]c3ccccc23)NC(=O)[C@H](CCCCN)NC(=O)[C@@H](NC(=O)[C@@H]2CCC(=O)N2)CSSC[C@@H](C(N)=O)NC(=O)[C@H](CCC(N)=O)NC1=O` [Example 52, pGlu-c(Cys-Lys-Trp-Ile-Gln-Cys)-NH2] ([pGlu]CKWIQC-NH2; disulfide 2-7) returned an EC50 of 0.025 µM.
The figure for `CC(C)[C@H](NC(=O)[C@@H](N)Cc1c[nH]c2ccccc12)C(=O)NC1CCC(=O)NC1=O` (stereo partly drawn) [Example 181, Trp-Val-α-aminoglutaramide] is 0.02 µM.
The figure for `CC[C@H](C)[C@@H]1NC(=O)[C@H](Cc2c[nH]c3ccccc23)NC(=O)[C@H](CCCCN)NC(=O)[C@@H](NC(C)=O)CCCCNC(=O)CC[C@@H](C(N)=O)NC(=O)[C@H](CCC(N)=O)NC1=O` [Example 124, Ac-c(Lys-Lys-Trp-Ile-Gln-Glu)-NH2] (Ac-KKWIQE-NH2; lactam 1-6) is 0.008 µM; for `CC[C@H](C)[C@@H]1NC(=O)[C@H](Cc2c[nH]c3ccccc23)NC(=O)[C@H](CCCCN)NC(=O)[C@@H](NC(C)=O)CCC(=O)NCCC[C@@H](C(N)=O)NC(=O)[C@H](CCC(N)=O)NC1=O` [Example 115, Ac-c(Glu-Lys-Trp-Ile-Gln-Orn)-NH2] (Ac-EKWIQ[Orn]-NH2; lactam 1-6) it is 0.005 µM; for `CC[C@H](C)[C@@H]1NC(=O)[C@H](Cc2c[nH]c3ccccc23)NC(=O)[C@H](CCCCN)NC(=O)[C@@H](NC(=O)c2ccc(-c3ccccc3)cc2)CSSC[C@@H](C(N)=O)NC(=O)[C@H](CCC(N)=O)NC1=O` [Example 67, 4-Biphenylcarboxyl-c(Cys-Lys-Trp-Ile-Gln-Cys)-NH2] ({Benzoyl(4-Ph)}-CKWIQC-NH2; disulfide 1-6) it is 0.008 µM.
